Assay results reported in patent US11739083B2, “Disposable sensor chip with reagent including 2-substituted benzothiazolyl-3-substituted phenyl-5-substituted sulfonated phenyl-2H-tetrazolium salt” (TERUMO KABUSHIKI KAISHA, priority 2016, dated 2023).

Assay: Evaluation of sensitivity (colour development with glucose, GDH-FAD, m-PMS, nickel; gradient versus WST-4)
Experimental: Separately, 100 μL of RO water was added to 7 mg of a glucose dehydrogenase that uses flavin adenine dinucleotide (FAD) as a coenzyme (GDH-FAD) (manufactured by TOYOBO CO., LTD., product No.: GLD-351), the enzyme was dissolved, and thus a GDH solution was produced. Furthermore, 200 μL of RO water was added to 3.5 mg of 1-methoxy-5-methylphenazium methyl sulfate (m-PMS) (manufactured by DOJINDO LABORATORIES), and the compound was dissolved therein. Thus, an s-PMS solution was produced. 1 mL of RO water was added to 129 mg of nickel chloride to dissolve the salt, and thus a nickel solution was produced.
40 μL of the reaction solution was added to 10 μL each of an aqueous glucose solution at a concentration of 125 mg/dL, an aqueous glucose solution at a concentration of 250 mg/dL, and an aqueous glucose solution at a concentration of 1,000 mg/dL, and the mixtures were allowed to develop color. The spectra were measured with a spectrophotometer (measurement cell length: 50 μm) (n=1). […] Thus, the gradient (gradientsample) was determined.
40 μL of the control reaction solution was added to 10 μL each of an aqueous glucose solution at a concentration of 125 mg/dL, an aqueous glucose solution at a concentration of 250 mg/dL, and an aqueous glucose solution at a concentration of 1,000 mg/dL, and the mixtures were allowed to develop color. The spectra were measured with a spectrophotometer (measurement cell length: 50 μm) (n=1). For each of the spectra, the absorbance at 650 nm, which is the measurement wavelength (λmax) of WST-4, was measured, and the glucose concentration in the colored solution and the absorbance were plotted on the horizontal axis and the vertical axis, respectively. Thus, the gradient (gradientWST-4) was determined.
FIG. 2 is a graph showing the relationship between the glucose concentration and the absorbance of produced formazan in relation to the tetrazolium compound 1 and WST-4. […] Meanwhile, the gradient serves as an index for the color development intensity of each compound. Therefore, when the value obtained by dividing the gradientsample by the gradientWST-4 (gradientsample/gradientWST-4) is greater than one-fold, it is implied that the intensity of color development on the longer wavelength side is higher compared to WST-4, which is a well-known indicator reagent.

COc1ccc2nc(-n3nc(-c4ccc(S(=O)(=O)O)cc4S(=O)(=O)[O-])n[n+]3-c3ccc(OC)c(S(=O)(=O)O)c3)sc2c1 [Example 1]
ratio gradientsample/gradientWST-4 (FIG. 2): about 2.4 | gradient (absorbance versus glucose concentration) (FIG. 2, compound 1 at its λmax with nickel, WST-4 at 650 nm without nickel): 0.0063 | Sensitivity, comparison with Comparative Example 5 (rating) (gradientsample/gradientWST-4, absorbance at λmax versus glucose concentration, cell length 50 μm): ⊙ (gradientsample/gradientWST-4) was 2 or greater)
